PubChem BioAssay AID248 (DTP/NCI, 2004)
Values joined by “and” are separate entries in the source; they are usually repeats but may differ in a detail not shown here. Equal entries are not always repeated. Toxic doses and inconclusive results are not listed. No stated cut-off is given here; in the data, active means T/C of 150% or more; inactive means T/C below 125%.

Tested on: L1210 leukemia ip in BDF1 mice, survival T/C
Assay: NCI In Vivo Anticancer Drug Screen. Data for tumor model L1210 Leukemia (intraperitoneal) in B6D2F1 (BDF1) mice
Conditions: endpoint: mean survival time, higher = longer survival
Summary of the method: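 Mice bearing the transplanted tumor received compound or vehicle. Survival of the treated group was divided by that of the vehicle-treated control group to give the ratio.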

[1] = dose: 100.0 mg/kg/injection, schedule: Q01DX001 (ip), vehicle: saline
[2] = dose: 100.0 mg/kg/injection, schedule: Q01DX001 (ip), vehicle: Klucel (hydroxypropylcellulose) (HPC)
[3] = dose: 200.0 mg/kg/injection, schedule: Q01DX001 (ip), vehicle: Klucel (hydroxypropylcellulose) (HPC)
[4] = dose: 400.0 mg/kg/injection, schedule: Q01DX001 (ip), vehicle: Klucel (hydroxypropylcellulose) (HPC)
[5] = dose: 100.0 mg/kg/injection, schedule: Q01DX009 (ip), vehicle: saline with Tween-80
[6] = dose: 200.0 mg/kg/injection, schedule: Q01DX009 (ip), vehicle: saline with Tween-80
[7] = dose: 400.0 mg/kg/injection, schedule: Q01DX009 (ip), vehicle: saline with Tween-80
[8] = dose: 100.0 mg/kg/injection, schedule: Q01DX009 (ip), vehicle: Klucel (hydroxypropylcellulose) (HPC)
[9] = dose: 200.0 mg/kg/injection, schedule: Q01DX009 (ip), vehicle: Klucel (hydroxypropylcellulose) (HPC)
[10] = dose: 400.0 mg/kg/injection, schedule: Q01DX009 (ip), vehicle: Klucel (hydroxypropylcellulose) (HPC)
[11] = dose: 50.0 mg/kg/injection, schedule: Q01DX009 (ip), vehicle: saline with Tween-80
[12] = dose: 100.0 mg/kg/injection, schedule: Q04DX002 (ip), vehicle: Klucel (hydroxypropylcellulose) (HPC)
[13] = dose: 100.0 mg/kg/injection, schedule: Q04DX003 (ip), vehicle: saline with Tween-80
[14] = dose: 200.0 mg/kg/injection, schedule: Q04DX003 (ip), vehicle: saline with Tween-80

Measured: T/C

COc1ccc2c3c(c4cc(OC)c(OC)cc4c2c1)C[C@H]1CCCCN1C3
inactive: dose: 0.06 mg/kg/injection, schedule: Q01DX Z (ip), vehicle: carboxymethylcellulose (CMC) 103 % of control | dose: 0.12 mg/kg/injection, schedule: Q01DX Z (ip), vehicle: carboxymethylcellulose (CMC) 108 % of control | dose: 0.25 mg/kg/injection, schedule: Q01DX Z (ip), vehicle: carboxymethylcellulose (CMC) 105 % of control | dose: 0.25 mg/kg/injection, schedule: Q01DX Z (ip), vehicle: other 116 % of control | dose: 0.5 mg/kg/injection, schedule: Q01DX Z (ip), vehicle: carboxymethylcellulose (CMC) 114 % of control and 124 % of control | dose: 0.5 mg/kg/injection, schedule: Q01DX Z (ip), vehicle: other 123 % of control | dose: 0.5 mg/kg/injection, schedule: Q01DX Z (ip), vehicle: saline 115 % of control | dose: 1.0 mg/kg/injection, schedule: Q01DX001 (ip), vehicle: saline 105 % of control | dose: 1.0 mg/kg/injection, schedule: Q01DX Z (ip), vehicle: carboxymethylcellulose (CMC) 122 % of control | dose: 1.0 mg/kg/injection, schedule: Q01DX Z (ip), vehicle: saline 115 % of control | dose: 2.0 mg/kg/injection, schedule: Q01DX001 (ip), vehicle: saline 105 % of control | dose: 2.0 mg/kg/injection, schedule: Q01DX Z (ip), vehicle: other 88 % of control | dose: 4.0 mg/kg/injection, schedule: Q01DX001 (ip), vehicle: saline 111 % of control

Cc1cc(/C=N/N=c2\[nH][nH]/c(=N\N=C\c3cc(C)n(-c4ccccc4)c3C)c3ccccc23)c(C)n1-c1ccccc1
inactive: dose: 50.0 mg/kg/injection, schedule: Q01DX001 (ip), vehicle: saline 97 % of control | [1] 97 % of control | dose: 200.0 mg/kg/injection, schedule: Q01DX001 (ip), vehicle: saline 92 % of control | dose: 400.0 mg/kg/injection, schedule: Q01DX001 (ip), vehicle: saline 103 % of control

C=CC(C)CCCC(C)C (stereo unspecified)
inactive: dose: 100.0 mg/kg/injection, schedule: Q04DX003 (ip), vehicle: saline 91 % of control | dose: 200.0 mg/kg/injection, schedule: Q04DX003 (ip), vehicle: saline 97 % of control | dose: 400.0 mg/kg/injection, schedule: Q04DX003 (ip), vehicle: saline 91 % of control

COC(=O)c1cocc1C(=O)N1Cc2cc3ccccc3nc2C1
inactive: [2] 103 % of control | [3] 95 % of control | [4] 94 % of control

O=C1c2ccccc2C(=O)c2cc3cc(Cl)ccc3cc21
inactive: dose: 100.0 mg/kg/injection, schedule: Q04DX003 (ip), vehicle: Klucel (hydroxypropylcellulose) (HPC) 90 % of control | dose: 200.0 mg/kg/injection, schedule: Q04DX003 (ip), vehicle: Klucel (hydroxypropylcellulose) (HPC) 87 % of control | dose: 400.0 mg/kg/injection, schedule: Q04DX003 (ip), vehicle: Klucel (hydroxypropylcellulose) (HPC) 95 % of control

N#CC(C#N)=Cc1ccc2ccccc2c1Br
inactive: [5] 96 % of control | [6] 94 % of control | [7] 90 % of control

O=C(CCl)Nc1ccc(Br)cc1
inactive: [5] 109 % of control | [6] 96 % of control

O=C(Sc1ccc([N+](=O)[O-])cc1)C(=O)Sc1ccc([N+](=O)[O-])cc1
inactive: [5] 87 % of control | [6] 97 % of control

CC(=O)OC1CCC2(C)C(CCC3C2CCC2(C)C3CC3OC(CCC(C)O)C(C)C32)C1 (stereo unspecified)
inactive: dose: 25.0 mg/kg/injection, schedule: Q04DX002 (ip), vehicle: saline with Tween-80 102 % of control | dose: 50.0 mg/kg/injection, schedule: Q04DX002 (ip), vehicle: saline with Tween-80 98 % of control | dose: 100.0 mg/kg/injection, schedule: Q04DX002 (ip), vehicle: saline with Tween-80 94 % of control

O=C(Nc1ccc(Cl)c(Cl)c1)c1ccc(C(=O)Nc2ccc(Cl)c(Cl)c2)cc1
inactive: [8] 91 % of control | [9] 92 % of control | [10] 86 % of control

CCCc1nc2ccccc2c(=O)n1/N=C/c1ccc(Cl)cc1
inactive: [8] 98 % of control | [9] 88 % of control | [10] 93 % of control

CCOC1=NCCCCC1OC(C)=O (stereo unspecified)
inactive: [8] 107 % of control | [9] 104 % of control | [10] 95 % of control

CCC(CC)C(=O)O.[Ag]
inactive: [1] 101 % of control

O=C(NC1CCCCC1)c1ccc(Cl)cc1Cl
inactive: [11] 100 % of control | [5] 100 % of control | [6] 96 % of control

CC(C)C(=O)c1ccc(Cl)s1
inactive: dose: 100.0 mg/kg/injection, schedule: Q04DX003 (sc), vehicle: olive oil, sesame oil, peanut oil 104 % of control | dose: 200.0 mg/kg/injection, schedule: Q04DX003 (sc), vehicle: olive oil, sesame oil, peanut oil 107 % of control | dose: 400.0 mg/kg/injection, schedule: Q04DX003 (sc), vehicle: olive oil, sesame oil, peanut oil 96 % of control

NC(=S)N/N=C/c1cccn1-c1ccc2ncccc2c1[N+](=O)[O-]
inactive: dose: 25.0 mg/kg/injection, schedule: Q04DX002 (ip), vehicle: Klucel (hydroxypropylcellulose) (HPC) 93 % of control | dose: 50.0 mg/kg/injection, schedule: Q04DX002 (ip), vehicle: Klucel (hydroxypropylcellulose) (HPC) 93 % of control | [12] 90 % of control

C=CCN(CC=C)c1nc(OC)nc(OC)n1
inactive: dose: 25.0 mg/kg/injection, schedule: Q01DX009 (ip), vehicle: saline with Tween-80 92 % of control | dose: 25.6 mg/kg/injection, schedule: Q04DX002 (ip), vehicle: saline with Tween-80 97 % of control | [11] 94 % of control | dose: 50.0 mg/kg/injection, schedule: Q04DX003 (ip), vehicle: saline with Tween-80 95 % of control | dose: 64.0 mg/kg/injection, schedule: Q04DX002 (ip), vehicle: saline with Tween-80 101 % of control | [5] 94 % of control | [13] 95 % of control and 103 % of control | dose: 160.0 mg/kg/injection, schedule: Q04DX002 (ip), vehicle: saline with Tween-80 101 % of control | [14] 92 % of control | dose: 400.0 mg/kg/injection, schedule: Q04DX002 (ip), vehicle: saline with Tween-80 101 % of control

CC(C)(COS(C)(=O)=O)COS(C)(=O)=O
inactive: dose: 50.0 mg/kg/injection, schedule: Q01DX001 (ip), vehicle: Klucel (hydroxypropylcellulose) (HPC) 95 % of control | [2] 93 % of control | [3] 93 % of control | [4] 101 % of control

CCCNC(=O)Nc1ccc(C)c(Cl)c1
inactive: [5] 100 % of control | [13] 108 % of control | [6] 96 % of control | [14] 101 % of control | [7] 100 % of control | dose: 400.0 mg/kg/injection, schedule: Q04DX003 (ip), vehicle: saline with Tween-80 95 % of control

CCc1cc2oc(C)c(C)c2c(N=Nc2ccc(Cl)cc2)c1O
inactive: [12] 99 % of control | dose: 200.0 mg/kg/injection, schedule: Q04DX002 (ip), vehicle: Klucel (hydroxypropylcellulose) (HPC) 96 % of control | dose: 400.0 mg/kg/injection, schedule: Q04DX002 (ip), vehicle: Klucel (hydroxypropylcellulose) (HPC) 99 % of control

O=C1C(c2ccccc2)=C2c3ccccc3-c3ccccc3C2(O)C1c1ccccc1 (stereo unspecified)
inactive: [2] 98 % of control | [3] 103 % of control | [4] 98 % of control
